26 compounds from ChEMBL document CHEMBL1201862, “PubChem BioAssay data set” (2004) can be followed below.

The term AC50 denotes the concentration at which the activity in the assay is half-maximal.

The target in assay [1] is T1, Calpain-2 catalytic subunit (Sus scrofa, UniProt P43367).
T1 sequence (P43367 whole entry): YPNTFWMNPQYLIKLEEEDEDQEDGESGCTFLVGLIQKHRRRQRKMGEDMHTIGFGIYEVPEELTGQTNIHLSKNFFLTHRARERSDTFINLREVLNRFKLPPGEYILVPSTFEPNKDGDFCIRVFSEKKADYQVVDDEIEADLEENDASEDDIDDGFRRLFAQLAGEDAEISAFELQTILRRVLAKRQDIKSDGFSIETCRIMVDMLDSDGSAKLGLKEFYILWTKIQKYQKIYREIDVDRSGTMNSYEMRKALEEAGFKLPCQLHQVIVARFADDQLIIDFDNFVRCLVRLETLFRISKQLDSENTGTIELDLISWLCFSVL
Briefly: pig calpain II inhibitor potency, dose response, biochemical, fluorogenic peptide substrate (AID 1420). It counts as functional.

Assay [2] addresses T2, Ubiquitin-conjugating enzyme E2 N (Homo sapiens, UniProt P61088).
T2 sequence (P61088 whole entry): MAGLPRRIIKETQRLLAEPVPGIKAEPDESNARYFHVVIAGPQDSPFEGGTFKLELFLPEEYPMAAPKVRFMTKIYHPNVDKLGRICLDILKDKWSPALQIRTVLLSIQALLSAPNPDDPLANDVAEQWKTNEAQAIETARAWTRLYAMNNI
The format is functional.

Assay [3] has as its target T3, Corticotropin-releasing factor receptor 2/Corticotropin-releasing factor-binding protein (Homo sapiens, UniProt P24387+Q13324).
T3 sequence (Q13324 whole entry): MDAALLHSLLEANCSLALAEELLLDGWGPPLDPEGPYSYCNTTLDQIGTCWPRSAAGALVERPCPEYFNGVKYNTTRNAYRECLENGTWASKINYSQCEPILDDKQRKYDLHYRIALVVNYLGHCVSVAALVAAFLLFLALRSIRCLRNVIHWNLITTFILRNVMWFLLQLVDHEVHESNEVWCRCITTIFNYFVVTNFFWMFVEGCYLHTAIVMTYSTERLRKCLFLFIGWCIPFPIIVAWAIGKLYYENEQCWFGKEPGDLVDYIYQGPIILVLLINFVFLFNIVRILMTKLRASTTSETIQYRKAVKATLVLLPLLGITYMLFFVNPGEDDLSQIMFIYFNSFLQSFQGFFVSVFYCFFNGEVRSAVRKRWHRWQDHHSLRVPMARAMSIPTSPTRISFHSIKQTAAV
T3 sequence (P24387 whole entry): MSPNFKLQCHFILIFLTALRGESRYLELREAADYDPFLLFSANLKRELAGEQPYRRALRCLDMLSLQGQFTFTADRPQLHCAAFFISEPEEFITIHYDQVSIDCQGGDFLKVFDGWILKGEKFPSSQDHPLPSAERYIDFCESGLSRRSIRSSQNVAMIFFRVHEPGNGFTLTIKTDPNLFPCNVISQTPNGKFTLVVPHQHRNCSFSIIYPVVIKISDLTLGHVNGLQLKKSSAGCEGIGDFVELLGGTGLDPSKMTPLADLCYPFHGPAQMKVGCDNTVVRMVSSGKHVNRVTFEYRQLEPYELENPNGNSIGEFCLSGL
Nature of the assay: activators of CRF receptor 2 with binding protein – uHTS hits, confirmation (AID 602473). It counts as functional. Conditions: read-out: EC50_Mean.

Assay [4] deals with T3, Corticotropin-releasing factor receptor 2/Corticotropin-releasing factor-binding protein. Nature of the assay: Dose Response confirmation of uHTS hits for small molecule antagonists of the CRF-binding protein and CRF-R2 receptor complex. It counts as functional. Conditions: read-out: IC50_Mean.
Assay [5] concerns the target T4, Histone-lysine N-methyltransferase NSD2 (Homo sapiens, UniProt O96028).
T4 sequence (O96028 whole entry): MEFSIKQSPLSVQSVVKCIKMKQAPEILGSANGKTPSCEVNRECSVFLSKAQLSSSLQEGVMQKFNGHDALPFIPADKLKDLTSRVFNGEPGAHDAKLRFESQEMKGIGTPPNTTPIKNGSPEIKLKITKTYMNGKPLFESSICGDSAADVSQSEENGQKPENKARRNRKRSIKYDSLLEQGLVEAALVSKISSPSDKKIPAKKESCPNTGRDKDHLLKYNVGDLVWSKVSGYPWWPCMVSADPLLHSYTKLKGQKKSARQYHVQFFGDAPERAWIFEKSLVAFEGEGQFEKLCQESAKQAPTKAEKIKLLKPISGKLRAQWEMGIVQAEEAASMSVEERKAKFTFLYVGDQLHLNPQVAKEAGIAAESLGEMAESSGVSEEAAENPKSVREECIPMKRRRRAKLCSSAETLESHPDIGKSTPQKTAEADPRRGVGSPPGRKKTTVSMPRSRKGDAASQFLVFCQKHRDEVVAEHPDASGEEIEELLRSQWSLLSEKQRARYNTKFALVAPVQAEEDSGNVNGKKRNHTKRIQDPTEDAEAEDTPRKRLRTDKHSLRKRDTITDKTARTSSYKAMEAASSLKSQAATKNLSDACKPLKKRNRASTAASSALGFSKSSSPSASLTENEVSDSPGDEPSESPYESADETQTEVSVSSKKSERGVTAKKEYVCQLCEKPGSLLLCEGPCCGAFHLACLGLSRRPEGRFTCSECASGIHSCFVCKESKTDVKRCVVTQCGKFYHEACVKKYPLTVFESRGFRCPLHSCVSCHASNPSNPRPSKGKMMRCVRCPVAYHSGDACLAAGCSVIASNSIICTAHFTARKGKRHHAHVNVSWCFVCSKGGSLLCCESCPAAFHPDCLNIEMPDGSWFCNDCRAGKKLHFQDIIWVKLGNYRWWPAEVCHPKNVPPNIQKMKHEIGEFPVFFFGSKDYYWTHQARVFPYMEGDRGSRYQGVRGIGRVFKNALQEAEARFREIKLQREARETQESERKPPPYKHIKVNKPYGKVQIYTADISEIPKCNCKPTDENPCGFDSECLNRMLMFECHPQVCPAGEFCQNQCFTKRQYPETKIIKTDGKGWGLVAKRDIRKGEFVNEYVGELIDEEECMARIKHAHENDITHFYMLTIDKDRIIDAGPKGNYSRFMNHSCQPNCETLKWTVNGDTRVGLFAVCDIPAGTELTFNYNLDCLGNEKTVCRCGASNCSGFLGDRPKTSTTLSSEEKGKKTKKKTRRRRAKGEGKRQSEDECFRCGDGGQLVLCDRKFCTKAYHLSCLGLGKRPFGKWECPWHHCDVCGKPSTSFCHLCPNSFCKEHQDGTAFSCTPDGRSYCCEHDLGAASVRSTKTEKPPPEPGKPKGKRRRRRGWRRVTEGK
It counts as biochemical.

Assay [6] can be described thus: IGROV1 ovarian cancer cell cytotoxicity, dose response, PAX8 inhibitor project, plate reader, dry powder samples (AID 743043). It counts as functional, cell-based. Particulars: IGROV-1.
Another assay deals with Paired box protein Pax-8 (Homo sapiens, UniProt Q06710). Briefly: inhibitors of PAX8-driven TPO luciferase reporter, dose response, RMG-I cells, cherry-pick (AID 687027).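 Also: luciferase reporter driven by Pax8 target thyroperoxidase promoter measured by SteadyGlo luminescence.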 It counts as functional, cell-based. In general terms: In a reporter assay the amount or activity of a reporter protein is the signal.
Assay [7] is described as follows: NIH:OVCAR-3 ovarian cancer cell cytotoxicity, dose response, PAX8 inhibitor project, plate reader, dry powder samples (AID 743044). The format is functional, cell-based.
For the next assay, the target named is Large T antigen (Simian virus 40, UniProt P03070). It counts as functional, Betapolyomavirus macacae.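 Also: Confirmatory-stage PubChem screen for compounds that inhibit SV40 T antigen.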
Assay [8] has as its system BJ. Briefly: cytotoxicity toward BJ-TERT fibroblasts, dose response, cell-based, RAS-independent, luminescence (AID 1933). Conditions: Homo sapiens. It counts as functional.
The nature of assay [9]: microbe, parasite or virus in culture. The format is functional. Particulars: Mycobacterium tuberculosis.
Assay [10] has as its system BJ. Briefly: cells. The format is functional, cell-based. Conditions: Homo sapiens.
A short description of assay [11]: cytotoxicity toward DRD oncogenic fibroblasts, dose response, cell-based, non-viral oncogenic, luminescence (AID 1934). Conditions: Homo sapiens. The format is functional.
The test system of assay [12] is BJ. Nature of the assay: cytotoxicity toward BJ-TERT-LT-ST fibroblasts, dose response, cell-based, RAS-independent, luminescence (AID 1935).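 Also: BJ fibroblasts immortalized with TERT plus LT and ST oncogenes.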 It counts as functional. Particulars: Homo sapiens.

Molecules are shown by their SMILES. Calls of active or inactive are those of the source.

Paired box protein Pax-8, sequence (Q06710 whole entry): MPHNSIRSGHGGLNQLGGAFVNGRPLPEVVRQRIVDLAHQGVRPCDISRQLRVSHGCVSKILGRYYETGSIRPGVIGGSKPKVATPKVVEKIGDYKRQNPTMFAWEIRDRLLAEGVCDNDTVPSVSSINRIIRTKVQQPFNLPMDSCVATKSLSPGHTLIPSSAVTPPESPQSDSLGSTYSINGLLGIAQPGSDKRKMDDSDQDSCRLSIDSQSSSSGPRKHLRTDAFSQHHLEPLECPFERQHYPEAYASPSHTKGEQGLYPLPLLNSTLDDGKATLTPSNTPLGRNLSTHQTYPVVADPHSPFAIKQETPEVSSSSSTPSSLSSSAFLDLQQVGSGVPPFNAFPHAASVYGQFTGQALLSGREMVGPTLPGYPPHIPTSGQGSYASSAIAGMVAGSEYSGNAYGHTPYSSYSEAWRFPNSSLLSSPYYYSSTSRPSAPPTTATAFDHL
Large T antigen, sequence (P03070 whole entry): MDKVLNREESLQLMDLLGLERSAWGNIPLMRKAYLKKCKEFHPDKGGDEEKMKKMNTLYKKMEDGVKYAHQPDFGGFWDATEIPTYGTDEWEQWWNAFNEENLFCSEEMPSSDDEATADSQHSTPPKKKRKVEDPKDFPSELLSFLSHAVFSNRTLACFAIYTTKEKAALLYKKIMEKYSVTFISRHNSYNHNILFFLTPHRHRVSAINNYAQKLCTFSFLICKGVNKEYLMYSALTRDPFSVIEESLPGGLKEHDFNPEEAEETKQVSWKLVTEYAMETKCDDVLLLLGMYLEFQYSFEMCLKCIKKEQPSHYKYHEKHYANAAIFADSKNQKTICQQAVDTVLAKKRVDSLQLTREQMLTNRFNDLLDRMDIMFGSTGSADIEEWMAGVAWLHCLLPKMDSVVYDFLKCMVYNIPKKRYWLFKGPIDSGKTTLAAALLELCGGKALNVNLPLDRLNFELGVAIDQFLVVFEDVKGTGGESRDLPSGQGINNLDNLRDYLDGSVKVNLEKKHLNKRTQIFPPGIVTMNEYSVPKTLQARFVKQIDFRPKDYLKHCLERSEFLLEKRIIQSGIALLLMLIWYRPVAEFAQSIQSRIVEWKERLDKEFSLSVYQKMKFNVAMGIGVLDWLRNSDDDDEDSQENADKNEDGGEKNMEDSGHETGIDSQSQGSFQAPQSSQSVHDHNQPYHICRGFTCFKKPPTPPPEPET

As to `Cc1ccc2nc(Cl)c(/C=N/Nc3ccc(C(=O)O)cc3)cc2c1`, the IC50 in assay [1] is reported as 4.02 µM (not active).

For the compound `CCCC[C@@H](CNC)NC[C@H](NCCCCC1CCCCC1)C(C)C`, the IC50 in [2] is > 20 µM (inactive).

As for `CSc1ncccc1C(=O)N(C)CC(=O)Nc1cccc(F)c1`, in assay [3], the EC50 was > 53 µM (inactive). In addition, the IC50 in [4] was > 47.1 µM (inactive).

In the case of `NC(=O)COc1ncn(-c2ccccc2)n1`, the EC50 in assay [3] was > 53 µM (inactive). Moreover, the IC50 in assay [4] is > 47.1 µM (inactive).

In the case of `CCn1c(O)c(N=NC(S)=NCC2CCCO2)c2ccccc21` (centres undefined), the IC50 in assay [2] is > 20 µM (inactive).

On to `O=C(CCCN1C(=O)c2ccccc2C1=O)N1CCC(c2ccccc2)C1` (centres undefined), for which the IC50 in [1] is recorded as 25.1 µM (not active).

In the case of `C=C(C)c1cccc(C(C)(C)NC(=O)NC2CN3CCC2CC3)c1` (centres undefined), in assay [5], the concentration at half-maximal activity (AC50) was 15.6 µM (active).

In the case of `C[C@H](CO)N1C[C@H](C)[C@H](CN(C)CC2CCCCC2)OCCCC[C@H](C)Oc2ccc(NC(=O)Nc3ccccc3)cc2C1=O`, the AC50 in assay [6] is 38.2 µM (active); on Paired box protein Pax-8, 14.2 µM (active); in assay [7], 25 µM (active).

For the compound `CC1CN(C(c2ccco2)c2sc3ncnn3c2O)CC(C)O1` (centres undefined), in [3], the EC50 was > 53 µM (inactive). Also, the IC50 in [4] was > 47.1 µM (inactive).

As for `CC(=O)Nc1ccc(OC(=O)C(CCS(C)(=O)=O)N2C(=O)c3ccccc3C2=O)cc1` (centres undefined), the IC50 at Large T antigen was 8.46 µM (active).

On to `CC(C)Cn1cc(C(=O)NC2CCN(Cc3ccccc3)CC2)c2c3ccccc3n(C)c2c1=O`, for which the IC50 in [2] was > 20 µM (inactive).

`C[C@H](CO)N1C[C@H](C)[C@H](CN(C)Cc2ccc(Cl)c(Cl)c2)OCCCC[C@H](C)Oc2ccc(NS(=O)(=O)c3ccc(F)cc3)cc2C1=O`: the values for the AC50 (at Paired box protein Pax-8; in assay [7]) were 4.85 µM (active) and 48.3 µM (active), respectively.

Turning to `O=C(COC(=O)C1CCN(S(=O)(=O)c2ccccc2)CC1)NC(=O)c1ccc(OC(F)F)cc1`, in assay [3], the EC50 is > 53 µM (inactive). In addition, the IC50 in [4] is > 47.1 µM (inactive).

As for `Cc1cc(NC(=O)CCl)no1`, the EC50 in the assay on BJ [8] is 18 µM (active); with BJ [10], > 150 µM (not active); in assay [11] it was 21.1 µM (active); in the assay on BJ [12], > 75 µM (not active). In addition, the CC50 in [9] was 19.6 µM (active).

For `Cc1ccc(-c2noc(CSc3nnc(Cc4ccccc4)n3-c3cccc(C)c3)n2)cc1`, in [1], the IC50 was 5.35 µM (not active).

On to `O=C(OCC(=O)N1CCN(c2ccccc2)CC1)c1ccccn1`, for which the EC50 in assay [3] was > 53 µM (inactive). For the same compound, the IC50 in [4] was > 47.1 µM (inactive).

Turning to `CCCOc1ccc(OCCN2CCCC(C)C2)cc1` (centres undefined), in [1], the IC50 was < 0.4 µM (not active).

For the compound `O=C(/C=C/c1ccco1)Nc1ccccc1C(=O)O`, the AC50 in [5] was > 20 µM (inactive).

For `CC1=NC(=S)NC(c2cccs2)/C1=C(\O)OCC(C)C` (centres undefined), the IC50 on Large T antigen is 51.4 µM (active).

Consider `O=C(CCCN1C(=O)/C(=C/c2cccc(Br)c2)SC1=S)Nc1cccnc1`, for which the EC50 with BJ [8] is 3.12 µM (active); in the assay on BJ [10], 25.3 µM (active); in [11], 9.68 µM (active); in the assay on BJ [12] it was 17.2 µM (active). On Paired box protein Pax-8, the AC50 is 8.92 µM (active).

As for `COc1ccc(CN2CCS(=O)(=O)CC2)cc1OC`, the EC50 in [3] was > 53 µM (inactive). For the same compound, the IC50 in assay [4] is > 47.1 µM (inactive).

With `CCOC(=O)C1CCCN(c2c(NCCCN(C)c3ccccc3)c(=O)c2=O)C1` (centres undefined), the IC50 in assay [1] was > 50 µM (not active).

Turning to `CCc1ccc(N(C(=O)c2snc(C(N)=O)c2N)C(C(=O)NC2CCCC2)c2ccco2)cc1` (centres undefined), the IC50 in assay [2] was > 20 µM (inactive).

Turning to `CCN(CC)S(=O)(=O)c1cc(NS(=O)(=O)c2ccccc2)ccc1C`, the IC50 in assay [1] was > 50 µM (not active).

`Cc1ccc(C2CC(c3cccs3)=NN2C(=O)c2ccco2)o1` (centres undefined): the IC50 in assay [1] is listed as > 50 µM (not active).

Regarding `O=C(O)c1cccc2c1C(=O)N(Cc1ccccc1)C2`, the EC50 in assay [3] was > 53 µM (inactive). Further, the IC50 in assay [4] was > 47.1 µM (inactive).
